Consider 3 substances from patent publication US6645495B1, “Compositions of saponin adjuvants and excipients” (Antigenics, Inc., priority 1997, dated 2003).

A short description of series [1]: aqueous shelf life of QS-21 solution at 4° C. (t90). In kind it is physicochemical. Here is the method:
Product stability is another concern for QS-21 containing compositions. The shelf life of a vaccine product is typically defined by the extent of time to reach a defined and acceptable low level of degradation (such as, the time to 10% degradation, also known as t90). Most commercial vaccine products have a shelf life of at least 18 to 24 months when stored in the refrigerator at 4° C. Adjuvants, which are essential components of vaccines, therefore must also have equally long shelf lives. However, the shelf life of a 50 μg/ml solution of QS-21 at pH 7.0 at 4° C. is reached in about 3 months. The reason for the short shelf life is because the ester bond of QS-21 is increasingly labile at increasing pH and because monomers of QS-21, as opposed to micelles, are subject to hydrolysis. The need to stabilize compositions of QS-21 adjuvant is significant.
This is representative of a typical clinical vaccine formulation containing QS-21 adjuvant (which consists of QS-21 at a concentration of 50-200 μg/ml in a-physiological pH buffer (pH 7.0-7.5)). […] Some improvement in stability, however, can be achieved by an increased concentration of the QS-21 product. […] But a concentrated QS-21 solution is not necessarily a practical method of administering a low dose of adjuvant. For example, administration of 25 μg from a 500 μg/ml solution would require the syringe withdrawal of 0.05 ml of dose. Additionally, some improved stability can be achieved by the use of a lower pH, i.e., at pH 6.0. However, a pH substantially lower than the physiological pH range may not be tolerated well or be compatible with the antigen.

The subject of the next series is C57BL/6 mice. The following applies: antigen ovalbumin, cited from earlier work.
Series [2] deals with New Zealand white rabbits. The settings on record: cited from earlier work.
Another series relates to Balb/c mice. The experiment in a line: adjuvant potency: anti-OVA IgG2a response of immunized Balb/c mice (EIA). In kind it is in vivo. Here is the method: FIGS. 1A and 1B show the effect of Polysorbate 40, Polysorbate 60, Polysorbate 80, and methyl-β-cyclodextrin on the immune response of Balb/c mice to OVA plus various doses of QS-21. Female mice (10/group, 8-10 weeks of age at the first immunization) were immunized subcutaneously with 5 μg of OVA and the indicated dose of QS-21 in either PBS alone or in 2 mg/ml excipient in PBS. A booster immunization was given by the same route at week 2. Sera was collected at week 4 for EIA analysis of the anti-OVA response. Mice were analyzed for OVA-specific IgG2a by a standard EIA analysis.

Series [3] is described as follows: earlier clinical trials: pain after injection of QS-21 in simple buffer. In kind it is in vivo, humans. The following applies: QS-21 in saline or PBS, some individuals. From the text:
This pain, described by most individuals as a burning pain, may be a secondary reaction correlated with the lytic effect of the QS-21 adjuvant. Patient pain is likewise an objectionable property for a composition.

The conditions of series [4]: cited from earlier work.
For series [5] the following is noted: in words; cited from earlier work.
A further series deals with sheep red blood cells. The following applies: cited from earlier work; for concentration causing hemolysis of sheep red blood cells: substantially pure saponin.

Consider QS-21, for which the “t90 (shelf life, time to 10% degradation)” value in series [1] (50 μg/ml QS-21, pH 6.0) is recorded as 679 days; in series [1] (50 μg/ml QS-21, pH 7.0, 4° C.) it was 94 days; in series [1] (500 μg/ml QS-21, pH 7.0, 4° C.), 717 days. Moreover, the shelf life in series [1] (500 μg/ml QS-21, pH 7.0, 4° C.) worked out at 23.9 months. Moreover, in the series on C57BL/6 mice (in PBS (Kensil 1993)), the “threshold dose for antibody” value is 2.5 µg. Moreover, the “threshold dose for CTL” value in the series on C57BL/6 mice (in PBS (Newman 1992)) is 2.5 µg. Also, in series [2] (after injection with QS-21 in saline or PBS), the “creatine kinase (marker for muscle damage)” value is “increased”. In addition, in series [2] (intramuscular QS-21/saline solutions, some animals (Kensil 1995)), the injection site histopathology entry is on record as “mild to moderate fibroblast damage or necrosis”. Besides, the “adjuvant activity (threshold dose) relative to PBS” value in the series on Balb/c mice (5 μg OVA s.c., boost week 2, sera week 4, 2 mg/ml Polysorbate 40, 60, 80 or methyl-β-cyclodextrin in PBS) is recorded as “active in all excipients within two fold of the threshold value determined in PBS”. For the same substance, the optimum adjuvant dose in the series on Balb/c mice (QS-21 dose, OVA-specific IgG2a, Balb/c mice) is at least 10 µg. In addition, the “maximum level of antibody response” value in the series on Balb/c mice (at optimum adjuvant dose, excipients versus PBS) is on record as “same maximum level of antibody response was reached”. For the same substance, the pain after injection entry in series [3] was “immediate, transient pain”. Besides, in series [4] (in PBS (Soltysik 1995)), the critical micellar concentration entry is “approximately 50 μg/ml”. Further, the “critical micellar concentration in phosphate buffered saline” value in series [4] is listed as ~0.02 % (w/v). Besides, in series [4], the “critical micellar concentration in water” value is “approximately 0.03 % (w/v)”. For the same substance, the immune adjuvant activity result in series [5] is given as “having immune adjuvant activity”. The “concentration at which hemolysis occurs” value in the series with sheep red blood cells (simple buffer such as saline or PBS (Kensil 1991)) was 5000 to 7000 ng/mL. Besides, in the series on sheep red blood cells, the “concentration causing hemolysis of sheep red blood cells” value (“concentration causing hemolysis” for short) was at least 25000 ng/mL.
With QS-18, in series [4], the “critical micellar concentration in phosphate buffered saline” value is on record as ~0.02 % (w/v) and the “critical micellar concentration in water” value was “approximately 0.04 % (w/v)”. For the same substance, the immune adjuvant activity entry in series [5] is “having immune adjuvant activity”. In addition, the “concentration causing hemolysis” value in the series with sheep red blood cells was at least 25000 ng/mL.
Regarding QS-17, in series [4], the “critical micellar concentration in phosphate buffered saline” value is reported as ~0.03 % (w/v) and the “critical micellar concentration in water” value is on record as “approximately 0.06 % (w/v)”. Besides, the immune adjuvant activity result in series [5] was “having immune adjuvant activity”. The “concentration causing hemolysis” value with sheep red blood cells was at least 25000 ng/mL.
